Measured values from patent publication US20230073777A1, “CYCLIC-AMP RESPONSE ELEMENT BINDING PROTEIN (CBP) AND/OR ADENOVIRAL E1A BINDING PROTEIN OF 300 KDA (P300) DEGRADATION COMPOUNDS AND METHODS OF USE” (CULLGEN (SHANGHAI), INC., priority 2019, published 2023).

Legend:
LNCaP cells = experiment: LNCaP cell viability assay (CellTiter-Glo); type: cell-based; settings: Homo sapiens, 72 h; LNCaP prostate cancer cell viability inhibition, 3 days, CellTiter-Glo (Table 2)
In short: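 LNCaP cells, 5000/well, exposed to compounds in 12-point 3-fold serial dilution (top 10 μM) for 3 days. Viability by CellTiter-Glo luminescence, normalized to untreated cells; IC50 by least-squares nonlinear regression.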

P300 = P300 (Homo sapiens, UniProt Q09472); experiment: Immunoblotting of P300 protein levels in LNCaP or 22RV1 cells; type: cell-based; design: LNCaP or 22RV1 cells that express CBP/P300 proteins were treated with GNE-781 or the bivalent compounds; endogenous in cells; host or cells: LNCaP (clone FGC) or 22RV1 cells; settings: percentage of inhibition of p300 at 10 nM (Table 2); read-out: Degradation (10 nM)
Experimental: Specific exemplary bivalent compounds were characterized in LNCaP or 22RV1 cells. LNCaP or 22RV1 cells that express CBP/P300 proteins were treated with GNE-781 or the bivalent compounds disclosed herein (P-001 to P-174) for indicated hours. Cells were collected, lysed and subject to immunoblotting using an antibody specific to P300 or CBP proteins. Tubulin or vinculin was included as the loading control. DMSO was used as the negative control.
Cultured cells or tissue chunks were washed with cold PBS once and lysed in cold RIPA buffer supplemented with protease inhibitors and phosphatase inhibitors (Beyotime Biotechnology). The solutions were then incubated at 4° C. for 30 minutes with gentle agitation to fully lyse cells. Cell lysates were centrifuged at 13,000 rpm for 10 minutes at 4° C. and pellets were discarded. Total protein concentrations in the lysates were determined by BCA assays (Beyotime Biotechnology). Cell lysates were mixed with Laemmli loading buffer to 1× and heated at 99° C. for 5 min. Proteins were resolved on SDS-PAGE and visualized by chemiluminescence. Images were taken by a ChemiDoc MP Imaging system (Bio-Rad). Protein bands were quantitated using the accompanied software provided by Bio-Rad.

P300, sequence (Q09472 whole entry): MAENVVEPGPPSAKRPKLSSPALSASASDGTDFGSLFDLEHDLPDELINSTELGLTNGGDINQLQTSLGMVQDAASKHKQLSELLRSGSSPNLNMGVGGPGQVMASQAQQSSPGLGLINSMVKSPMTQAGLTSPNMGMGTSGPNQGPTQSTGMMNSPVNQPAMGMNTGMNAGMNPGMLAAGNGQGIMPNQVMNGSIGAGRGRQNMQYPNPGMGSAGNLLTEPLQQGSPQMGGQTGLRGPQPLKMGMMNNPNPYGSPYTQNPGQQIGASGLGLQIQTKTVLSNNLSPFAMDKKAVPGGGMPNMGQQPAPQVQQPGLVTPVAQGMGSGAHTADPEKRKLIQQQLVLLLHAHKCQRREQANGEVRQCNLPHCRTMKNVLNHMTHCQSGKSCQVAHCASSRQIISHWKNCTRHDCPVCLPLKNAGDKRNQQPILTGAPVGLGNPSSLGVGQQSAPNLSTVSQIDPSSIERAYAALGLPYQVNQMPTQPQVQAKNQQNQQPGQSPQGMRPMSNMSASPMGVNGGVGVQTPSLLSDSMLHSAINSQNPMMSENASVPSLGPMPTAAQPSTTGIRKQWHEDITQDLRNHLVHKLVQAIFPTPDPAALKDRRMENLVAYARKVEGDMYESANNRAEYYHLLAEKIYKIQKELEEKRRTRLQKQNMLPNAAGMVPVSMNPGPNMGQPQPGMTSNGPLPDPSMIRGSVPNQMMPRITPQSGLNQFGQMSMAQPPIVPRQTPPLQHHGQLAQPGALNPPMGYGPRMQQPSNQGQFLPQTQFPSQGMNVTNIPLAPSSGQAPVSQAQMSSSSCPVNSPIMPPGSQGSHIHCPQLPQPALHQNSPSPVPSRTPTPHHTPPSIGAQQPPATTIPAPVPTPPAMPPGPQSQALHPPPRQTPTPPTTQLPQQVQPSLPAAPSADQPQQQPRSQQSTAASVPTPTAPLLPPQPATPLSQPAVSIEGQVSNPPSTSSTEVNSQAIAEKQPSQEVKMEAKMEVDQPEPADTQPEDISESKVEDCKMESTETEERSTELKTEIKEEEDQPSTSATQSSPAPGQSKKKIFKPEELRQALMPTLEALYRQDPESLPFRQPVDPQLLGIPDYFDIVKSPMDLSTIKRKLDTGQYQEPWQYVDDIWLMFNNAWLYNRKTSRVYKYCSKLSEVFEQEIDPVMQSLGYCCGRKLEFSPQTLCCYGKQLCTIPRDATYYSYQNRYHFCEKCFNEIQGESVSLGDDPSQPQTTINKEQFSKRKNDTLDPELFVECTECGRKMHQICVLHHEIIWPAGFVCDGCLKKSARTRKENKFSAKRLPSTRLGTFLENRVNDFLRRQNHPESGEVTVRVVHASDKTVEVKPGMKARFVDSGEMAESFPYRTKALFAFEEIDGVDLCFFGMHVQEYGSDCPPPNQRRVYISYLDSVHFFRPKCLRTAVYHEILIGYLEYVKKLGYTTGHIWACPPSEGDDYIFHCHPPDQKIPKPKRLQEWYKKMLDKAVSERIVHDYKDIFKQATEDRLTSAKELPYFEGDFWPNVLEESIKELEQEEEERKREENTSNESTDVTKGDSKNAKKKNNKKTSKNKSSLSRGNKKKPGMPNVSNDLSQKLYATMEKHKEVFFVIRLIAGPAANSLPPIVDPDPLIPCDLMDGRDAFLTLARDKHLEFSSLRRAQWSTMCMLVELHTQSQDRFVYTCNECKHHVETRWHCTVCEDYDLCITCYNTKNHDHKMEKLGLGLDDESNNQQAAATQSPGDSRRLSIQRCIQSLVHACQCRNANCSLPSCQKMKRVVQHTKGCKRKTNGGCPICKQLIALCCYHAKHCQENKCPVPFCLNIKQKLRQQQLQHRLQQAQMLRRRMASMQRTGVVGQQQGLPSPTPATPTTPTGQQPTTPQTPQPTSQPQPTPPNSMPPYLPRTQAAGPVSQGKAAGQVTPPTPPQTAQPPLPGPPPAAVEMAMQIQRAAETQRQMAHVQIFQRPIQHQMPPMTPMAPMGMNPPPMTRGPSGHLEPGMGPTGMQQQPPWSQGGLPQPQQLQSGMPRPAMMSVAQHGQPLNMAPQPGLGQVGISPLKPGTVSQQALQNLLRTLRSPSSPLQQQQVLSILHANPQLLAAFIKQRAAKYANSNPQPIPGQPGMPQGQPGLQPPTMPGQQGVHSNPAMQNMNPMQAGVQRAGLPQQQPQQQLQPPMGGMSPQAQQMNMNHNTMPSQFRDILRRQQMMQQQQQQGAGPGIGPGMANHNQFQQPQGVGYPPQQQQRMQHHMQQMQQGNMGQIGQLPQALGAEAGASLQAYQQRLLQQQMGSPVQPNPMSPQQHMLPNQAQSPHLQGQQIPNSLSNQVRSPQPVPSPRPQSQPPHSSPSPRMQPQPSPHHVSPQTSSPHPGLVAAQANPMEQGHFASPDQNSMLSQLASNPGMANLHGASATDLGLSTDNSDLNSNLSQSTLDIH

| Structure (SMILES) | IC50 (LNCaP cells) | inhibition at 0.01 µM (P300) |
| --- | --- | --- |
| CNC(=O)N1CCc2c(c(N3CCCc4cc(-c5cnn(CC(=O)NCCOCCNc6ccc7c(c6)C(=O)N(C6CCC(=O)NC6=O)C7=O)c5)c(C(F)F)cc43)nn2C2CCOCC2)C1 (stereo not drawn) [P-028, 3-(7-(Difluoromethyl)-6-(1-(2-((2-(2-((2-(2,6-dioxopiperidin-3-yl)-1,3-dioxoisoindolin-5-yl)amino)ethoxy)ethyl)amino)-2-oxoethyl)-1H-pyrazol-4-yl)-3,4-dihydroquinolin-1(2H)-yl)-N-methyl-1-(tetrahydro-2H-pyran-4-yl)-1,4,6,7-tetrahydro-5H-pyrazolo[4,3-c]pyridine-5-carboxamide] | 1040 nM | < 20% |
| CNC(=O)N1CCc2c(c(N3CCCc4cc(-c5cnn(CC(=O)NCCOCCOCCNc6ccc7c(c6)C(=O)N(C6CCC(=O)NC6=O)C7=O)c5)c(C(F)F)cc43)nn2C2CCOCC2)C1 (stereo not drawn) [P-029] | 578 nM | < 20% |
| CNC(=O)N1CCc2c(c(N3CCCc4cc(-c5cnn(CC(=O)NCCOCCOCCOCCNc6ccc7c(c6)C(=O)N(C6CCC(=O)NC6=O)C7=O)c5)c(C(F)F)cc43)nn2C2CCOCC2)C1 (stereo not drawn) [P-030, 3-(7-(Difluoromethyl)-6-(1-(14-((2-(2,6-dioxopiperidin-3-yl)-1,3-dioxoisoindolin-5-yl)amino)-2-oxo-6,9,12-trioxa-3-azatetradecyl)-1H-pyrazol-4-yl)-3,4-dihydroquinolin-1(2H)-yl)-N-methyl-1-(tetrahydro-2H-pyran-4-yl)-1,4,6,7-tetrahydro-5H-pyrazolo[4,3-c]pyridine-5-carboxamide] | 669 nM | < 20% |
| CNC(=O)N1CCc2c(c(N3CCCc4cc(-c5cnn(CC(=O)NCCOCCOCCOCCOCCNc6ccc7c(c6)C(=O)N(C6CCC(=O)NC6=O)C7=O)c5)c(C(F)F)cc43)nn2C2CCOCC2)C1 (stereo not drawn) [P-031, 3-(7-(Difluoromethyl)-6-(1-(17-((2-(2,6-dioxopiperidin-3-yl)-1,3-dioxoisoindolin-5-yl)amino)-2-oxo-6,9,12,15-tetraoxa-3-azaheptadecyl)-1H-pyrazol-4-yl)-3,4-dihydroquinolin-1(2H)-yl)-N-methyl-1-(tetrahydro-2H-pyran-4-yl)-1,4,6,7-tetrahydro-5H-pyrazolo[4,3-c]pyridine-5-carboxamide] | 566 nM | < 20% |
| CNC(=O)N1CCc2c(c(N3CCCc4cc(-c5cnn(CC(=O)NCCOCCOCCOCCOCCOCCNc6ccc7c(c6)C(=O)N(C6CCC(=O)NC6=O)C7=O)c5)c(C(F)F)cc43)nn2C2CCOCC2)C1 (stereo not drawn) [P-032, 3-(7-(Difluoromethyl)-6-(1-(20-((2-(2,6-dioxopiperidin-3-yl)-1,3-dioxoisoindolin-5-yl)amino)-2-oxo-6,9,12,15,18-pentaoxa-3-azaicosyl)-1H-pyrazol-4-yl)-3,4-dihydroquinolin-1(2H)-yl)-N-methyl-1-(tetrahydro-2H-pyran-4-yl)-1,4,6,7-tetrahydro-5H-pyrazolo[4,3-c]pyridine-5-carboxamide] | 601 nM | < 20% |
| CNC(=O)N1CCc2c(c(N3CCCc4cc(-c5cnn(C)c5)c(C(F)F)cc43)nn2C2CCN(C(=O)CCCCNc3cccc4c3C(=O)N(C3CCC(=O)NC3=O)C4=O)CC2)C1 (stereo not drawn) [P-033, 3-(7-(difluoromethyl)-6-(1-methyl-1H-pyrazol-4-yl)-3,4-dihydroquinolin-1(2H)-yl)-1-(1-(5-((2-(2,6-dioxopiperidin-3-yl)-1,3-dioxoisoindolin-4-yl)amino)pentanoyl)piperidin-4-yl)-N-methyl-1,4,6,7-tetrahydro-5H-pyrazolo[4,3-c]pyridine-5-carboxamide] | 4.8 nM | > 80% |
| CNC(=O)N1CCc2c(c(N3CCCc4cc(-c5cnn(C)c5)c(C(F)F)cc43)nn2C2CCN(C(=O)CCCCCCNc3cccc4c3C(=O)N(C3CCC(=O)NC3=O)C4=O)CC2)C1 (stereo not drawn) [P-035, 3-(7-(difluoromethyl)-6-(1-methyl-1H-pyrazol-4-yl)-3,4-dihydroquinolin-1(2H)-yl)-1-(1-(7-((2-(2,6-dioxopiperidin-3-yl)-1,3-dioxoisoindolin-4-yl)amino)heptanoyl)piperidin-4-yl)-N-methyl-1,4,6,7-tetrahydro-5H-pyrazolo[4,3-c]pyridine-5-carboxamide] | 0.7 nM | > 80% |
| CNC(=O)N1CCc2c(c(N3CCCc4cc(-c5cnn(C)c5)c(C(F)F)cc43)nn2C2CCN(C(=O)CCCCCCCNc3cccc4c3C(=O)N(C3CCC(=O)NC3=O)C4=O)CC2)C1 (stereo not drawn) [P-036, 3-(7-(difluoromethyl)-6-(1-methyl-1H-pyrazol-4-yl)-3,4-dihydroquinolin-1(2H)-yl)-1-(1-(8-((2-(2,6-dioxopiperidin-3-yl)-1,3-dioxoisoindolin-4-yl)amino)octanoyl)piperidin-4-yl)-N-methyl-1,4,6,7-tetrahydro-5H-pyrazolo[4,3-c]pyridine-5-carboxamide] | 0.8 nM | > 80% |
| CNC(=O)N1CCc2c(c(N3CCCc4cc(-c5cnn(CC(=O)NCCNc6cccc7c6C(=O)N(C6CCC(=O)NC6=O)C7=O)c5)c(C(F)F)cc43)nn2C2CCOCC2)C1 (stereo not drawn) [P-037, 3-(7-(Difluoromethyl)-6-(1-(2-((2-((2-(2,6-dioxopiperidin-3-yl)-1,3-dioxoisoindolin-4-yl)amino)ethyl)amino)-2-oxoethyl)-1H-pyrazol-4-yl)-3,4-dihydroquinolin-1(2H)-yl)-N-methyl-1-(tetrahydro-2H-pyran-4-yl)-1,4,6,7-tetrahydro-5H-pyrazolo[4,3-c]pyridine-5-carboxamide] | > 10000 nM | < 20% |
| CNC(=O)N1CCc2c(c(N3CCCc4cc(-c5cnn(CC(=O)NCCCNc6cccc7c6C(=O)N(C6CCC(=O)NC6=O)C7=O)c5)c(C(F)F)cc43)nn2C2CCOCC2)C1 (stereo not drawn) [P-038, 3-(7-(Difluoromethyl)-6-(1-(2-((3-((2-(2,6-dioxopiperidin-3-yl)-1,3-dioxoisoindolin-4-yl)amino)propyl)amino)-2-oxoethyl)-1H-pyrazol-4-yl)-3,4-dihydroquinolin-1(2H)-yl)-N-methyl-1-(tetrahydro-2H-pyran-4-yl)-1,4,6,7-tetrahydro-5H-pyrazolo[4,3-c]pyridine-5-carboxamide] | 385 nM | < 20% |
| CNC(=O)N1CCc2c(c(N3CCCc4cc(-c5cnn(CC(=O)NCCCCNc6cccc7c6C(=O)N(C6CCC(=O)NC6=O)C7=O)c5)c(C(F)F)cc43)nn2C2CCOCC2)C1 (stereo not drawn) [P-039, 3-(7-(Difluoromethyl)-6-(1-(2-((4-((2-(2,6-dioxopiperidin-3-yl)-1,3-dioxoisoindolin-4-yl)amino)butyl)amino)-2-oxoethyl)-1H-pyrazol-4-yl)-3,4-dihydroquinolin-1(2H)-yl)-N-methyl-1-(tetrahydro-2H-pyran-4-yl)-1,4,6,7-tetrahydro-5H-pyrazolo[4,3-c]pyridine-5-carboxamide] | 397 nM | < 20% |
| CNC(=O)N1CCc2c(c(N3CCCc4cc(-c5cnn(CC(=O)NCCCCCNc6cccc7c6C(=O)N(C6CCC(=O)NC6=O)C7=O)c5)c(C(F)F)cc43)nn2C2CCOCC2)C1 (stereo not drawn) [P-040, 3-(7-(Difluoromethyl)-6-(1-(2-((5-((2-(2,6-dioxopiperidin-3-yl)-1,3-dioxoisoindolin-4-yl)amino)pentyl)amino)-2-oxoethyl)-1H-pyrazol-4-yl)-3,4-dihydroquinolin-1(2H)-yl)-N-methyl-1-(tetrahydro-2H-pyran-4-yl)-1,4,6,7-tetrahydro-5H-pyrazolo[4,3-c]pyridine-5-carboxamide] | 96.4 nM | < 20% |
| CNC(=O)N1CCc2c(c(N3CCCc4cc(-c5cnn(CC(=O)NCCCCCCNc6cccc7c6C(=O)N(C6CCC(=O)NC6=O)C7=O)c5)c(C(F)F)cc43)nn2C2CCOCC2)C1 (stereo not drawn) [P-041, 3-(7-(difluoromethyl)-6-(1-(2-((6-((2-(2,6-dioxopiperidin-3-yl)-1,3-dioxoisoindolin-4-yl)amino)hexyl)amino)-2-oxoethyl)-1H-pyrazol-4-yl)-3,4-dihydroquinolin-1(2H)-yl)-N-methyl-1-(tetrahydro-2H-pyran-4-yl)-1,4,6,7-tetrahydro-5H-pyrazolo[4,3-c]pyridine-5-carboxamide] | 10.6 nM | 20 to 50% |
| CNC(=O)N1CCc2c(c(N3CCCc4cc(-c5cnn(CC(=O)NCCCCCCCNc6cccc7c6C(=O)N(C6CCC(=O)NC6=O)C7=O)c5)c(C(F)F)cc43)nn2C2CCOCC2)C1 (stereo not drawn) [P-042] | 39 nM | < 20% |
| CNC(=O)N1CCc2c(c(N3CCCc4cc(-c5cnn(CC(=O)NCCCCCCCCNc6cccc7c6C(=O)N(C6CCC(=O)NC6=O)C7=O)c5)c(C(F)F)cc43)nn2C2CCOCC2)C1 (stereo not drawn) [P-043, 3-(7-(difluoromethyl)-6-(1-(2-((8-((2-(2,6-dioxopiperidin-3-yl)-1,3-dioxoisoindolin-4-yl)amino)octyl)amino)-2-oxoethyl)-1H-pyrazol-4-yl)-3,4-dihydroquinolin-1(2H)-yl)-N-methyl-1-(tetrahydro-2H-pyran-4-yl)-1,4,6,7-tetrahydro-5H-pyrazolo[4,3-c]pyridine-5-carboxamide] | 15.4 nM | 20 to 50% |
